In brackets after ≈: the same amount, converted by molar mass.
Experiments:
P. aeruginosa = P. aeruginosa ATCC 27853, control standard
Text: (§1) They are expressed as milligrams of substance per liter of culture medium.

E. coli = E. coli ATCC 25922, control standard
Text: as §1

S. aureus = S. aureus ATCC29213, control standard
Text: as §1

bacterial infection = settings: following a 10 day course of treatment with a pharmaceutical formulation
Text: A patient suffering from a bacterial infection is identified.

E. faecalis = settings: ATCC 29212, control standard

Compound `COC1/C=C/OC2(C)Oc3c(C)c(O)c4c([O-])c(c5c([nH]c6cc(C)cc[n+]65)c4c3C2=O)NC(=O)/C(CO)=C\C=C\C(C)C(O)C(C)C(O)C(C)C(OC(C)=O)C1C` (centres unmarked) [Example 2] has an MIC (P. aeruginosa) of 32 µg/mL (≈ 39.9 µM), an MIC (E. coli) of 32 µg/mL (≈ 39.9 µM) and a M.I.C. (S. aureus) of 0.5 mg/mL. For the same compound, the “level of bacterial infection in the patient” value (bacterial infection) was “reduced” and the M.I.C. (E. faecalis) was 64 mg/mL.

Source: patent US8765778B2, “Rifamycin derivatives” (Alfa Wassermann, S.p.A., priority 2009, dated 2014)
